Ends that are not written are not given here.
Tested on: NGF-differentiated PC-12 cells
Test: Assessment of nuclear morphology with Hoechst-33258 after Aβ1−42 exposure
Type: cell-based, Rat
Conditions: peptide 100 nM pre-treatment; Aβ1−42 oligomers 5 μM, 24 h; Hoechst staining; 3 separate experiments, ~1,000 cells per group
Procedure: Rat pheochromocytoma cells (PC-12 cells) were grown as previously described (Pannaccione et al., [2005], [2007]). For all the experiments, cells were seeded at low density on glass cover-slips coated with poly-L-lysine (50 μg/ml). Differentiation of PC-12 cells was achieved by treatment with neuronal growth factor (NGF) 2.5 S (50 ng/ml) for 7–9 days (Greene and Tischler, [1976]). For electrophysiological experiments, cells were seeded on glass cover-slips and used after 7–9 days of NGF. […]
Nuclear morphology was evaluated by using the fluorescent DNA-binding dye Hoechst-33258 already described (Pannaccione et al., [2007]).
The peptide used in our study was synthesized by INBIOS (Pozzuoli, Naples, Italy) using the Aβ1−42 sequence of human APP [UniProtKB-P05067 (A4_HUMAN)]. The purity of the peptide was assessed by high-performance liquid chromatography (>95% pure) and the amino acid composition was verified by mass spectrometry. […] The pre-aggregated preparation of Aβ oligomers was analyzed in SDS-PAGE using the rabbit monoclonal anti-Aβ on precast gels 4-20%. […]
Figure 7 Effect of BDS-I[1-8] on Aβ1−42-induced abnormal nuclear morphology and caspase-3 activation in NGF-differentiated PC-12 cells. […] Values are expressed as mean±SEM of 3 independent experimental sessions. […]

## blood depressing substance-I [BDS-I]
  effect on abnormal nuclear morphology induced by Aβ1−42 exposure: able to significantly prevent

## AAPAFASG [BDS-I[1-8]]
  effect on abnormal nuclear morphology induced by Aβ1−42 exposure: able to significantly prevent
